ChEMBL document CHEMBL1125524, “Adenosine A1 antagonists. 2. Structure-activity relationships on diuretic activities and protective effects against acute renal failure” (J Med Chem, 1992)

How the values were obtained:
Rattus norvegicus [1] = assay: Serum creatinine concentration measured after intraperitoneal administration of 10 mg/kg of compound to rats (vehicle0.63+/-0.29); assay type: functional
Rattus norvegicus [2] = assay: Oral diuretic activity was measured after oral administration of 25 mg/kg to rats(control volume is 0.80+/-0.13); assay type: functional, Urine
Rattus norvegicus [3] = assay: Percent inhibition of serum creatinine by the compound given as ratio of Cr value in treated to vehicle treated ones after intraperitoneal administration of 10 mg/kg of compound to rats (vehicle0.63+/-0.29); assay type: functional; settings: ip
Rattus norvegicus [4] = assay: Ratio of urinary excretion value (urinary volume) in treated rats to that in control rats, at a peroral dose of 25 mg/Kg; assay type: functional, Urine
Rattus norvegicus [5] = assay: Ratio of sodium ion/potassium ion concentration in treated rats to that in control rats, at a peroral dose of 25 mg/Kg; assay type: functional
Rattus norvegicus [6] = assay: Ratio of urinary excretion value (Na+ concentration) in treated rats to that in control rats, at a peroral dose of 25 mg/Kg; assay type: functional, Urine
Rattus norvegicus [7] = assay: Effect on urinary excretion potassium and sodium after oral administration of 25 mg/kg to rats(potassium and sodium excretion in control rat is 0.160+/-0.017); assay type: functional, Urine
Rattus norvegicus [8] = assay: Urea nitrogen concentration measured after intraperitoneal administration of 10 mg/kg of compound to rats(vehicle 137.9+/-8.5); assay type: functional
Rattus norvegicus [9] = assay: Percent inhibition of Urea nitrogen by the compound given as ratio of UN value in treated to vehicle treated ones fter intraperitoneal administration of 10 mg/kg of compound to rats(vehicle 137.9+/-8.5); assay type: functional; settings: ip
Adenosine receptor A1 = target: T1, Adenosine receptor A1 (Cavia porcellus, UniProt P47745)
T1 sequence (P47745 whole entry): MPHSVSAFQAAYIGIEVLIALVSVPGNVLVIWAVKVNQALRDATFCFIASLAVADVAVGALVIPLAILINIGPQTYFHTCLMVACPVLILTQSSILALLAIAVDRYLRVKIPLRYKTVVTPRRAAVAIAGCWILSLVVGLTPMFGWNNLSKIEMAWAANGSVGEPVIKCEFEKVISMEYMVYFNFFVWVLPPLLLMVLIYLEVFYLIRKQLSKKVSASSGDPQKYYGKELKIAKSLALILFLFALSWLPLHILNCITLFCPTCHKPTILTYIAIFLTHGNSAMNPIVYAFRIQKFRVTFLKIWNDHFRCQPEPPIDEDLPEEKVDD
Description: Binding affinity against adenosine A1 receptor in guinea pig forebrain membranes using N6-[3H]cyclohexyladenosine as radioligand

Adenosine A2 receptor = Adenosine A2 receptor (Rattus norvegicus, UniProt P29276+P30543)
Rattus norvegicus [10] = assay: Serum creatinine concentration measured after intraperitoneal administration of 1 mg/kg of compound to rats(vehicle 4.09+/-0.39); assay type: functional
Rattus norvegicus [11] = assay: Serum creatinine concentration measured after intraperitoneal administration of 1 mg/kg of compound to rats(vehicle 5.08+/-0.14); assay type: functional
Rattus norvegicus [12] = assay: Serum creatinine concentration measured after intraperitoneal administration of 1 mg/kg of compound to rats(vehicle 6.90+/-0.2); assay type: functional
Rattus norvegicus [13] = assay: Effect on urinary excretion potassium and sodium after oral administration of 0.1 mg/kg to rats(potassium and sodium excretion in control rat is 0.179+/-0.038); assay type: functional, Urine
Rattus norvegicus [14] = assay: Ratio of urinary excretion value (urinary volume) in treated rats to that in control rats, at a peroral dose of 0.1 mg/Kg; assay type: functional, Urine
Rattus norvegicus [15] = assay: Ratio of urinary excretion value (urinary volume) in treated rats to that in control rats, at a peroral dose of 1.6 mg/Kg; assay type: functional, Urine
Rattus norvegicus [16] = assay: Urea nitrogen concentration measured after intraperitoneal administration of 1 mg/kg of compound to rats(vehicle 165.3+/-4); assay type: functional
Rattus norvegicus [17] = assay: Urea nitrogen concentration measured after intraperitoneal administration of 1 mg/kg of compound to rats(vehicle 171.3+/-6.4); assay type: functional
Rattus norvegicus [18] = assay: Effect on urinary excretion potassium and sodium after oral administration of 0.01 mg/kg to rats(potassium and sodium excretion in control rat is 0.191+/-0.020); assay type: functional, Urine
Rattus norvegicus [19] = assay: Ratio of sodium ion/potassium ion concentration in treated rats to that in control rats, at a peroral dose of 0.01 mg/Kg; assay type: functional
Rattus norvegicus [20] = assay: Ratio of sodium ion/potassium ion concentration in treated rats to that in control rats, at a peroral dose of 0.1 mg/Kg; assay type: functional
Rattus norvegicus [21] = assay: Ratio of sodium ion/potassium ion concentration in treated rats to that in control rats, at a peroral dose of 1.6 mg/Kg; assay type: functional
Rattus norvegicus [22] = assay: Ratio of urinary excretion value (Na+ concentration) in treated rats to that in control rats, at a peroral dose of 0.01 mg/Kg; assay type: functional, Urine
Rattus norvegicus [23] = assay: Ratio of urinary excretion value (Na+ concentration) in treated rats to that in control rats, at a peroral dose of 0.1 mg/Kg; assay type: functional, Urine
Rattus norvegicus [24] = assay: Ratio of urinary excretion value (Na+ concentration) in treated rats to that in control rats, at a peroral dose of 1.6 mg/Kg; assay type: functional, Urine
Rattus norvegicus [25] = assay: Ratio of urinary excretion value (urinary volume) in treated rats to that in control rats, at a peroral dose of 0.01 mg/Kg; assay type: functional, Urine
Rattus norvegicus [26] = assay: Effect on urinary excretion potassium and sodium after oral administration of 1.6 mg/kg to rats(potassium and sodium excretion in control rat is 0.173+/-0.015); assay type: functional, Urine
Rattus norvegicus [27] = assay: Oral diuretic activity was measured after oral administration of 1.6 mg/kg to rats(control volume is 0.93+/-0.03); assay type: functional, Urine
Rattus norvegicus [28] = assay: Oral diuretic activity was measured after oral administration of 0.01 mg/kg to rats(control volume is 1.15+/-0.17); assay type: functional, Urine
Rattus norvegicus [29] = assay: Oral diuretic activity was measured after oral administration of 0.1 mg/kg to rats(control volume is 0.75+/-0.12); assay type: functional, Urine
Rattus norvegicus [30] = assay: Urea nitrogen concentration measured after intraperitoneal administration of 1 mg/kg of compound to rats(vehicle 143.9+/-12.2); assay type: functional

CCCn1c(=O)c2nc(CC34CC5CC(CC(C5)C3)C4)[nH]c2n(CCC)c1=O
Cr (Rattus norvegicus [1]): 3.21 mg/dL
Urine volume (Rattus norvegicus [2]): 0.51 ml 6hr-1 100g-1
inhibition in vivo at 10 mg/kg (Rattus norvegicus [3]): 12%
T/C (Rattus norvegicus [4]): 0.64
Na+/K+ (Rattus norvegicus [5]): 0.84
T/C (Rattus norvegicus [6]): 0.67
Na (Rattus norvegicus [7]): 0.108 m equiv 6hr-1 100g-1
UN (Rattus norvegicus [8]): 117.8 mg/dL
inhibition in vivo at 10 mg/kg (Rattus norvegicus [9]): 15%
Ki (Adenosine receptor A1): 880 nM
Ki (Adenosine A2 receptor): > 100000 nM

CC(C)Cn1c(=O)n(C)c(=O)c2[nH]c(C(C3CC3)C3CC3)nc21
Cr (Rattus norvegicus [10]): 4.28 mg/dL
Cr (Rattus norvegicus [11]): 3.29 mg/dL
Cr (Rattus norvegicus [12]): 3.97 mg/dL
Na (Rattus norvegicus [13]): 0.25 m equiv 6hr-1 100g-1
T/C (Rattus norvegicus [14]): 1.68
T/C (Rattus norvegicus [15]): 2.08
UN (Rattus norvegicus [16]): 122 mg/dL
UN (Rattus norvegicus [17]): 110.7 mg/dL
Na (Rattus norvegicus [18]): 0.212 m equiv 6hr-1 100g-1
Na+/K+ (Rattus norvegicus [19]): 1.09
Na+/K+ (Rattus norvegicus [20]): 2.13
Na+/K+ (Rattus norvegicus [21]): 1.37
T/C (Rattus norvegicus [22]): 1.11
T/C (Rattus norvegicus [23]): 1.4
T/C (Rattus norvegicus [24]): 1.99
T/C (Rattus norvegicus [25]): 1
Na (Rattus norvegicus [26]): 0.345 m equiv 6hr-1 100g-1
Urine volume (Rattus norvegicus [27]): 1.93 ml 6hr-1 100g-1
Urine volume (Rattus norvegicus [28]): 1.15 ml 6hr-1 100g-1
Urine volume (Rattus norvegicus [29]): 1.26 ml 6hr-1 100g-1
UN (Rattus norvegicus [30]): 150.7 mg/dL
Ki (Adenosine A2 receptor): 410 nM
